“And” between values parts separate entries of the source, which are not always exact repeats. Equal values may be shown once.
Legend:
[1] = Photo-DSC/DSC cationic curing activity of PAGs in VEX 5015; design: PDSC Peak Max / PDSC Induction Time: unit not given here
Method: (§1) Photo-DSC/DSC: Standard (hermetic) liquid sample pans were used. Sample size was kept in the 6 to 8 mg range. Samples were tested using a Dupont Photo-DSC/DSC instrument (available from DuPont, Wilmington, Del.). The light source was a 200 W Hg lamp that delivered about 60 mw/cm at the sample. Samples were exposed in open pans for 5 minutes to the light source at 30° C. then removed from the instrument, sealed and a standard DSC scan run at 10° C./minute to 300° C. A separate DSC experiment was carried out using a sealed sample pan and no prior light exposure to determine the dark reactivity of these PAGs. Comparison of the DSC traces before and after light exposure enables differentiation between the thermal reactivity of the PAGs (in the dark) and their photochemical activity.
(§2) This example describes photo-DSC/DSC experiments designed to quantitatively compare the relative cationic curing reactivities of PAGs of the present invention containing difunctional fluoroorganic sulfonate anions with related PAGs having identical cations and monofunctional perfluoroalkanesulfonate anions. Relative reactivities were measured in three different cationically polymerizable monomer systems, including two different types of epoxies and one vinyl ether.
(§3) The photo-DSC experiment provides information on the photo-cure speed at 30° C. as measured by the induction time (onset) and time to reach the peak maximum in the curing exotherm. […] The energy released under the curing exotherm is a measure of the extent of cure; larger values mean more cure has taken place during the light exposure. […] Comparison with the DSC traces recorded with no prior light exposure provides a measure of the increase in activity after photoactivation of the PAG.
(§4) General: Stock solutions of three cationically curable monomers were prepared as shown in Table 3 with 0.1% (w/w) isopropylthioxanthone (ITX). Epon 828 is a difunctional glycidyl ether epoxy from Shell, ERL-4221 is a difunctional cycloaliphatic epoxy from Union Carbide and VEX 5015 is a trifunctional vinyl ether from Allied Signal. Because of the low sensitivity of these compositions to room lights, all sample preparation was done with the lab lights on but the hood lights off. All PAGs were formulated at 1.0% by weight in the stock monomer/sensitizer solutions. Into a small aluminum pan was weighed 0.02 g of PAG and 0.04 g of propylene carbonate used to promote dissolution of the PAG in the monomer. The pan was heated briefly on a hot plate set at 100° C. to dissolve the PAG, then 2.0 g the stock monomer/sensitizer solution was added. The solution was briefly heated again on a hot plate set at 100° C. to allow complete mixing of the components, then the solution was allowed to cool to room temperature before using.

[2] = Photo-DSC/DSC cationic curing activity of PAGs in Epon 828; design: PDSC Peak Max / PDSC Induction Time: unit not given here
Method: as §1, §2, §3, §4

[3] = Thermal gravimetric analysis (TGA), onset of thermal decomposition; format: physicochemical; details: under nitrogen, ramp 10° C. per minute
Method: TGA was performed on a Perkin-Elmer Instruments TGA Model 7 in an open platinum pan. The onset of thermal decomposition, Td, was taken as the thermal decomposition temperature of the photoacid generators and was determined under nitrogen atmosphere using a temperature ramp of 10° C. per minute. The onset temperature was determined by the intersection of tangents to the low temperature portion of the baseline and the first inflection point in the wt % vs. temperature curve.

[4] = Photo-DSC/DSC cationic curing activity of PAGs in ERL-4221; design: PDSC Peak Max / PDSC Induction Time: unit not given here
Method: as §1, §2, §3, §4

[5] = Elimination of perfluoroalkylsulfonates from the body; format: in vivo; details: tested in the form of its potassium salt
[6] = VEX 5015, DSC scan after light exposure, two values = two exotherms
[7] = Epon 828, DSC scan after light exposure
[8] = Epon 828, no prior light exposure
[9] = ERL-4221, DSC scan after light exposure
[10] = ERL-4221, no prior light exposure

CC(C)(C)c1ccc([I+]c2ccc(C(C)(C)C)cc2)cc1.CC(C)(C)c1ccc([I+]c2ccc(C(C)(C)C)cc2)cc1.O=S(=O)([O-])C(F)(F)C(F)(F)C(F)(F)C(F)(F)S(=O)(=O)[O-] [PAG2, [(p-(CH3)3C—C6H4)2I^+]2-O3S(CF2)4SO3—]
PDSC Energy ([1]; VEX 5015, 1.0% PAG, 0.1% ITX, light exposure 5 min at 30° C.): 220 J/g | DSC after PDSC Energy ([1]; VEX 5015, DSC scan after light exposure): 31 J/g | DSC after PDSC Onset Temp [1, 6]: 135 C.° | DSC after PDSC Peak Max [1, 6]: 158 °C | PDSC Induction Time ([1]; VEX 5015, light exposure at 30° C.): 1.3 | DSC Only (dark) Onset Temp ([1]; VEX 5015, no prior light exposure, two values = two exotherms): 100, C.° and 160 C.° | PDSC Peak Max ([1]; VEX 5015, time to peak maximum of curing exotherm at 30° C.): 3.4 | solubility in PGMEA: greater than 4 wt % | PDSC Energy ([2]; Epon 828, 1.0% PAG, 0.1% ITX, light exposure 5 min at 30° C.): 7 J/g | DSC after PDSC Onset Temp ([2]; Epon 828, DSC scan 10° C./minute after light exposure): 110 C.° | DSC after PDSC Energy [2, 7]: 541 J/g | DSC after PDSC Peak Max [2, 7]: 194 °C | PDSC Induction Time ([2]; Epon 828, light exposure at 30° C.): 17.1 | DSC Only (dark) Energy [2, 8]: 574 J/g | DSC Only (dark) Onset Temp [2, 8]: 175 C.° | DSC Only (dark) Peak Max [2, 8]: 232 °C | PDSC Peak Max ([2]; Epon 828, time to peak maximum of curing exotherm at 30° C.): 27 | onset of thermal decomposition (TGA) [3]: 237 °C | PDSC Energy ([4]; ERL-4221, 1.0% PAG, 0.1% ITX, light exposure 5 min at 30° C.): 10 J/g | DSC after PDSC Onset Temp ([4]; ERL-4221, DSC scan 10° C./minute after light exposure): 60 C.° | DSC after PDSC Energy [4, 9]: 538 J/g | DSC after PDSC Peak Max [4, 9]: 142 °C | PDSC Induction Time ([4]; ERL-4221, light exposure at 30° C.): 14.8 | DSC Only (dark) Energy [4, 10]: 574 J/g | DSC Only (dark) Onset Temp [4, 10]: 150 C.° | DSC Only (dark) Peak Max [4, 10]: 196 | PDSC Peak Max ([4]; ERL-4221, time to peak maximum of curing exotherm at 30° C.): 25

O=S(=O)(O)C(F)(F)C(F)(F)C(F)(F)C(F)(F)F [perfluorobutylsulfonate]
elimination from the body [5]: eliminates from the body more effectively than perfluorohexylsulfonate and much more effectively than perfluorooctylsulfonate

From patent US7122294B2, “Photoacid generators with perfluorinated multifunctional anions” (3M Innovative Properties Company, priority 2003, dated 2006)
